The assay concerns the target T1, rat B1R (Rattus norvegicus, UniProt P97583).
T1 construct: expressed in transfected cells; host or cells: CHO K1 cells
T1 sequence (P97583 1-337): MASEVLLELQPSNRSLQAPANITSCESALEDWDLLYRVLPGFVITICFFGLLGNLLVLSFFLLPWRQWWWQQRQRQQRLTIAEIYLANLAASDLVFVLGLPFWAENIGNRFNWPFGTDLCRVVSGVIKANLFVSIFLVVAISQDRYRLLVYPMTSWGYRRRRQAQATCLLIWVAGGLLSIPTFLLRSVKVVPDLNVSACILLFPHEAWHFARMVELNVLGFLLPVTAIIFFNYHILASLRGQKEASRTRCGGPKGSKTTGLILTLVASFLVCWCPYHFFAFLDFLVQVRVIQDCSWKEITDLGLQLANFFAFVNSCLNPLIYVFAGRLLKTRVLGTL
The assay is described as follows: FLIPR Ca2+ functional study on bradykinin receptor 1 (rB1R CHO K1 cells). Conditions: for inhibition at 10 µM: CHO-K1, % inhibition rat B1R at 10 μM, read-out: % inh. (rat B1R) 10 μM; for % inh. (rat B1R) 10 μM: % inhibition rat B1R at 10 μM. Format: cell-based. Put shortly: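 CHO K1 cells stably expressing human or rat B1R were loaded with Fluo-4 and read on FLIPR (ex 488/em 540 nm, peak counts). Test compound (10 μM, or a concentration range for IC50) was added first for % activation versus control agonist; after 10-20 min, EC80 Lys-Des-Arg9-bradykinin (human) or Des-Arg9-bradykinin (rat) was added, giving % inhibition of maximum. n=2-3, N≥2.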

For the molecule `COc1cc(C)c(S(=O)(=O)N2CCC[C@H]2COc2nccc(N(C)CCN3CCC(c4ccccc4)(N(C)C)CC3)n2)c(C)c1` [G_CC-088, 2-(4-dimethylamino-4-phenyl-piperidin-1-yl)-ethyl-[2-[[(2S)-1-[(4-methoxy-2,6-dimethyl-phenyl)sulfonyl]-pyrrolidin-2-yl]-methoxy]-pyrimidin-4-yl]-methyl-amine], the inhibition at 10 µM amounted to 100%.
Still for that read-out and setting: the result for `CCCCC1(N(C)C)CCN(CCN(C)c2ccnc(OCCN(C)S(=O)(=O)c3c(C)cc(OC)cc3C)n2)CC1` [G_CC-120, N-[2-[4-[2-(4-butyl-4-dimethylamino-piperidin-1-yl)-ethyl-methyl-amino]-pyrimidin-2-yl]oxy-ethyl]-4-methoxy-N,2,6-trimethyl-benzenesulfonic acid amide] reads 86%.
As to `COc1cc(C)c(S(=O)(=O)N(C)CCOc2nccc(N3CCC(c4ccccc4)(N4CCCC4)CC3)n2)c(C)c1` [G_CC-116, 4-methoxy-N,2,6-trimethyl-N-[2-[4-(4-phenyl-4-pyrrolidin-1-yl-piperidin-1-yl)-pyrimidin-2-yl]oxy-ethyl]benzenesulfonic acid amide], the inhibition at 10 µM is 64%.
In the case of “(1S,5R)-8-[4-[[(2S)-1-[(4-methoxy-2,6-dimethyl-phenyl)sulfonyl]-pyrrolidin-2-yl]-methoxy]-pyrimidin-2-yl]-3-pyridin-4-yloxy-8-azabicyclo[3.2.1]octane [H_CC-052]”, the “% inh. (rat B1R) 10 μM” value worked out at 72%.
As for `COc1cc(C)c(S(=O)(=O)N2CCCCC2COc2ccnc(N3CCC(O)(c4ccccn4)CC3)n2)c(C)c1` (stereo not drawn) [H_CC-083, 1-[4-[[1-[(4-methoxy-2,6-dimethyl-phenyl)sulfonyl]-piperidin-2-yl]-methoxy]-pyrimidin-2-yl]-4-pyridin-2-yl-piperidin-4-ol], the inhibition at 10 µM is 59%.
The same measure, in the same setting: the result for `COc1cc(C)c(S(=O)(=O)N(C)C(COc2nccc(N3CCC4(CCN(Cc5ccccc5)C4=O)CC3)n2)c2ccccc2)c(C)c1` (stereo not drawn) [G_CC-061, N-[2-[[4-(3-benzyl-4-oxo-3,8-diazaspiro[4.5]decan-8-yl)-2-pyrimidinyl]oxy]-1-phenylethyl]-4-methoxy-N,2,6-trimethylbenzenesulfonamide] reads 81%; that for `COc1cc(C)c(S(=O)(=O)N(C)C(COc2nccc(N3CCC4(CCN(Cc5ccccc5)C4)C3)n2)c2ccccc2)c(C)c1` (stereo not drawn) [G_CC-068, N-[2-[[4-(3-benzyl-3,7-diazaspiro[4.4]nonan-7-yl)-2-pyrimidinyl]oxy]-1-phenylethyl]-4-methoxy-N,2,6-trimethylbenzenesulfonamide], 68%; that for `COc1cc(C)c(S(=O)(=O)N2c3ccccc3C[C@H]2COc2nccc(N(C)CCN3CCC(c4ccccc4)(N(C)C)CC3)n2)c(C)c1` [G_CC-094, 2-(4-dimethylamino-4-phenyl-piperidin-1-yl)-ethyl-[2-[[(2S)-1-[(4-methoxy-2,6-dimethyl-phenyl)sulfonyl]-2,3-dihydro-1H-indol-2-yl]-methoxy]-pyrimidin-4-yl]-methyl-amine], 102%.
Same read-out and setting: the same measure for `COc1cc(C)c(S(=O)(=O)N2CCCC(Oc3nccc(N4CCC(c5ccccc5)(N5CCCC5)CC4)n3)C2)c(C)c1` (stereo not drawn) [G_CC-114, 2-[1-[(4-methoxy-2,6-dimethyl-phenyl)sulfonyl]-piperidin-3-yl]oxy-4-(4-phenyl-4-pyrrolidin-1-yl-piperidin-1-yl)-pyrimidine]: 54%.
On the same count and under the same terms, the result for `COc1cc(C)c(S(=O)(=O)N2CCC[C@H]2COc2ccnc(N(C)CCN3CCC(c4ccccc4)(N4CCCC4)CC3)n2)c(C)c1` [H_CC-055, [4-[[(2S)-1-[(4-methoxy-2,6-dimethyl-phenyl)sulfonyl]-pyrrolidin-2-yl]-methoxy]-pyrimidin-2-yl]-methyl-[2-(4-phenyl-4-pyrrolidin-1-yl-piperidin-1-yl)-ethyl]-amine] reads 92%.
`COc1cc(C)c(S(=O)(=O)N(C)CCOc2ccnc(N3CCC(OCCN4CCCC4)(c4cccc(F)c4)CC3)n2)c(C)c1` [H_CC-090, N-[2-[2-[4-(3-fluorophenyl)-4-(2-pyrrolidin-1-yl-ethoxy)-piperidin-1-yl]-pyrimidin-4-yl]oxy-ethyl]-4-methoxy-N,2,6-trimethyl-benzenesulfonic acid amide]: the inhibition at 10 µM is 83%.
For the molecule `COc1cc(C)c(S(=O)(=O)N2CCC[C@@H]2COc2nccc(N3CCC(CNC(=O)c4ccncc4)(N4CCN(C)CC4)CC3)n2)c(C)c1` [G_CC-054, N-[[1-[2-[[(2R)-1-(4-methoxy-2,6-dimethylphenyl)sulfonyl-2-pyrrolidinyl)methoxy]-4-pyrimidinyl]-4-(4-methyl-1-piperazinyl)-4-pipendinyl]methyl]-4-pyridinecarboxamide], the “% inh. (rat B1R) 10 μM” value is given as 80%.
For `COc1cc(C)c(S(=O)(=O)N2CCCCC2COc2ccnc(N3CCC(CCCN4CCCC4)(c4cccnc4)CC3)n2)c(C)c1` (stereo not drawn) [H_CC-082, 4-[[1-[(4-methoxy-2,6-dimethyl-phenyl)sulfonyl]-piperidin-2-yl]-methoxy]-2-[4-pyridin-3-yl-4-(3-pyrrolidin-1-yl-propyl)piperidin-1-yl]-pyrimidine], the inhibition at 10 µM is 72%.
Still for that read-out and setting: the same measure for `COc1cc(C)c(S(=O)(=O)N(C)C(COc2nccc(N3CCC(O)(c4ccncc4)CC3)n2)c2ccccc2)c(C)c1` (stereo not drawn) [G_CC-112, N-[2-[4-(4-hydroxy-4-pyridin-4-yl-piperidin-1-yl)-pyrimidin-2-yl]oxy-1-phenyl-ethyl]-4-methoxy-N,2,6-trimethyl-benzenesulfonic acid amide]: 88%.
`COc1cc(C)c(S(=O)(=O)N(C)C(COc2nccc(N3CCN(C4CCN(C)CC4)CC3)n2)c2ccccc2)c(C)c1` (stereo not drawn) [G_CC-059, 4-methoxy-N,2,6-trimethyl-N-[2-[[4-[4-(1-methyl-4-pipendinyl)-1-piperazinyl]-2-pyrimidinyl]oxy]-1-phenylethyl]benzenesulfonamide]: the “% inh. (rat B1R) 10 μM” value is recorded as 98%.
Take `COc1cc(C)c(S(=O)(=O)N(C)C(COc2nccc(N3CCN(C(=O)c4cccnc4)CC3)n2)c2ccccc2)c(C)c1` (stereo not drawn) [G_CC-064, 4-methoxy-N,2,6-trimethyl-N-[2-[[4-[4-[oxo-(3-pyridyl)methyl]-1-piperazinyl]-2-pyrimidinyl]oxy]-1-phenylethyl]benzenesulfonamide]: the inhibition at 10 µM is 55%.
On the same count and under the same terms, the result for `COc1cc(C)c(S(=O)(=O)N2CC(Oc3nccc(N4CCN(CC5CCN(C)CC5)CC4)n3)C2)c(C)c1` [G_CC-077, 2-[1-[(4-methoxy-2,6-dimethyl-phenyl)sulfonyl]-azetidin-3-yl]oxy-4-[4-[(1-methyl-piperidin-4-yl)methyl]-piperazin-1-yl]-pyrimidine] reads 92%.
Take `COc1cc(C)c(S(=O)(=O)N(C)CCOc2nccc(N3CCC(CCN4CCCCC4)CC3)n2)c(C)c1` [G_CC-031]: the “% inh. (rat B1R) 10 μM” value turned out to be 104%.
As for `COc1cc(C)c(S(=O)(=O)N2CCC[C@H]2COc2ccnc(N3CCN(C)CC3)n2)c(C)c1` [H_CC-008, 4-[[(2S)-1-(4-methoxy-2,6-dimethylphenyl)sulfonyl-2-pyrrolidinyl]methoxy]-2-(4-methyl-1-piperazinyl)pyrimidine], the inhibition at 10 µM came to 95%.
Take `COc1cc(C)c(S(=O)(=O)N2CC(Oc3nccc(N(C)CCN4CCC(c5ccccc5)(N5CCCC5)CC4)n3)C2)c(C)c1` [G_CC-124, [2-[1-[(4-methoxy-2,6-dimethyl-phenyl)sulfonyl]-azetidin-3-yl]oxy-pyrimidin-4-yl]-methyl-[2-(4-phenyl-4-pyrrolidin-1-yl-piperidin-1-yl)-ethyl]amine]: the inhibition at 10 µM amounted to 57%.
With `COc1cc(C)c(S(=O)(=O)N2c3ccccc3C[C@H]2COc2nccc(N3CCC(Oc4cnccn4)CC3)n2)c(C)c1` [G_CC-092, (2S)-1-[(4-methoxy-2,6-dimethyl-phenyl)sulfonyl]-2-[[4-(4-pyrazin-2-yloxy-piperidin-1-yl)-pyrimidin-2-yl]oxy-methyl]-2,3-dihydro-1H-indole], the inhibition at 10 µM came out at 85%.
For the molecule `COc1cc(C)c(S(=O)(=O)N(C)CCOc2ccnc(N3CCC4(CCN(Cc5ccc(F)cc5)C4=O)CC3)n2)c(C)c1` [H_CC-039, N-[2-[[2-[3-[(4-fluorophenyl)methyl]-4-oxo-3,8-diazaspiro[4.5]decan-8-yl]-4-pyrimidinyl]oxy]ethyl]-4-methoxy-N,2,6-trimethylbenzenesulfonamide], the inhibition at 10 µM was determined as 50%.
The same measure, in the same setting: the result for `COc1cc(C)c(S(=O)(=O)N2CCCCC2COc2ccnc(N(C)CCN3CCC(c4ccccc4)(N4CCCC4)CC3)n2)c(C)c1` (stereo not drawn) [H_CC-063, [4-[[1-[(4-methoxy-2,6-dimethyl-phenyl)sulfonyl]-piperidin-2-yl]-methoxy]-pyrimidin-2-yl]-methyl-[2-(4-phenyl-4-pyrrolidin-1-yl-piperidin-1-yl)-ethyl]-amine] reads 82%; that for `COc1cc(C)c(S(=O)(=O)N(C)CCOc2nccc(N3CCC4(CCN(Cc5ccc(F)cc5)C4=O)CC3)n2)c(C)c1` [G_CC-045, N-[2-[[4-[3-[(4-fluorophenyl)methyl]-4-oxo-3,8-diazaspiro[4.5]decan-8-yl]-2-pyrimidinyl]oxy]ethyl]-4-methoxy-N,2,6-trimethylbenzenesulfonamide], 96%.
